Key:
[1] = Liquid; for mass density: 298.15 K, 101.33 kPa, Vibrating tube method; for Normal boiling temperature / vapor or sublimation pressure: Ebulliometric method (Recirculating still)
[2] = xn = mol fraction of the nth substance listed; conditions: 101.3 kPa, Liquid, x2 = 0

COC(=O)OC [dimethyl carbonate]
[1]
Conditions	Normal boiling temperature [°C]	mass density [kg/m3]
–	90.31	1063.36

CC1CCCCC1 [methylcyclohexane]
[1]
Conditions	Normal boiling temperature [°C]	mass density [kg/m3]
–	100.92	764.98

[1]
Conditions	vapor or sublimation pressure [kPa]
352.46 K	53.32
356.26 K	59.98
359.62 K	66.64
362.83 K	73.31
365.81 K	79.97
368.47 K	86.64
370.99 K	93.3
371.98 K	95.97
373.08 K	98.63
374.07 K	101.3
374.95 K	103.97
375.86 K	106.63
378.04 K	113.3
380.12 K	119.96
382.12 K	126.63
384.05 K	133.29
385.89 K	139.95
387.59 K	146.62
389.36 K	153.28
391.04 K	159.95
392.8 K	166.61
394.38 K	173.28
395.87 K	179.94
397.33 K	186.61
398.76 K	193.27
400.12 K	199.93
401.45 K	206.6
402.8 K	213.26
404.1 K	219.93
405.35 K	226.59
406.56 K	233.26
407.66 K	239.92
408.9 K	246.59
409.98 K	253.25

CC1CCCCC1 [methylcyclohexane] + CCOC(=O)OCC
[2]
Conditions	mass density [kg/m3]
293.15 K	769.3
298.15 K	764.98
303.15 K	760.65
308.15 K	756.29
313.15 K	751.93

CC(C)O [propan-2-ol]
[1]
Conditions	Normal boiling temperature [°C]	mass density [kg/m3]
–	82.46	780.87

[1]
Conditions	vapor or sublimation pressure [kPa]
345.46 K	66.64
347.71 K	73.31
349.79 K	79.97
351.72 K	86.64
353.54 K	93.3
354.01 K	95.04
355.25 K	99.97
355.61 K	101.3
356.27 K	103.97
356.9 K	106.63
358.45 K	113.3
359.91 K	119.96
361.29 K	126.63
362.65 K	133.29
363.94 K	139.95
365.2 K	146.62
366.38 K	153.28
367.56 K	159.95
368.65 K	166.61
369.76 K	173.28
371.81 K	186.61
372.8 K	193.27
373.76 K	199.93
374.69 K	206.6
375.57 K	213.26
376.46 K	219.93
377.29 K	226.59
378.13 K	233.26
378.93 K	239.92
379.71 K	246.59
380.45 K	253.25
381.17 K	259.91
381.89 K	266.58
382.8 K	273.24
383.48 K	279.91
384.11 K	286.57
384.79 K	293.24
385.42 K	299.9
